Measured values as given in patent US12655150B2 (Cedilla Therapeutics, Inc., priority 2021, dated 2026).

Test system: NCI-H226
Assay: 72H TEAD Proliferation Assay (Cell Titer Glo 2.0)
Format: cell-based
Conditions: Homo sapiens, NCI-H226, 72 h, CTG 2.0, cell line not given (NCI-H226 responsive, NCI-H28 non-responsive)
How it was run: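 NF2-deficient NCI-H226 mesothelioma cells, TEAD-dependent, treated 72 h; NF2-wild-type NCI-H28 serves as the TEAD-independent counter-screen for off-target cytotoxicity. Viable cells quantified by CellTiter-Glo 2.0 luminescence; background and time-zero signal subtracted, GI50 from nonlinear dose-response fit.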

| SMILES | GI50 [µM] |
| --- | --- |
| O=C(O)c1ccc2c(c1)nc(-c1ccc(F)cc1F)c1cccn12 [I-44, 4-(2,4-Difluorophenyl)pyrrolo[1,2-a]quinoxaline-7-carboxylic acid] | > 10 |
| CN(CCCC(F)(F)F)c1nc2cc(C(=O)O)ccc2n2cccc12 [I-125, 4-(Methyl(4,4,4-trifluorobutyl)amino)pyrrolo[1,2-a]quinoxaline-7-carboxylic acid] | > 10 |
| CC(C)(C)c1ccc(-c2nc3cc(C(=O)O)ncc3n3cccc23)cc1 [I-282, 6-(4-(tert-butyl)phenyl)pyrido[4,3-e]pyrrolo[1,2-a]pyrazine-3-carboxylic acid] | 1 to 5 |
| COc1cc(-c2ccc(C(F)(F)F)cc2)nc2cc(C(=O)NC3(CO)CC3)ccc12 [I-353, N-(1-(hydroxymethyl)cyclopropyl)-4-methoxy-2-(4-(trifluoromethyl)phenyl)quinoline-7-carboxamide] | 1 to 5 |
| CN(C)CCNC(=O)c1ccc2c(c1)nc(-c1ccc(C(C)(C)C)cc1)c1cccn12 [I-188, 4-(4-(tert-butyl)phenyl)-N-(2-(dimethylamino)ethyl)pyrrolo[1,2-a]quinoxaline-7-carboxamide] | 1 to 5 |
| COC(=O)c1ccc2c(c1)nc(-c1ccc(C(C)(C)C)cc1)c1cccn12 [Compound I-164] | > 10 |
| CC[C@H](CO)NC(=O)c1ccc2c(OC)cc(-c3ccc(C(F)(F)F)cc3OC)nc2c1 [I-342, (R)—N-(1-hydroxybutan-2-yl)-4-methoxy-2-(2-methoxy-4-(trifluoromethyl)phenyl)quinoline-7-carboxamide] | 1 to 5 |
| O=C(O)c1ccc2c(c1)nc(-c1ccc(OC(F)F)cc1)c1cccn12 [I-193, 4-(4-(difluoromethoxy)phenyl)pyrrolo[1,2-a]quinoxaline-7-carboxylic acid] | 1 to 5 |
| O=C(O)c1ccc2c(c1)nc(-c1ccccc1)c1nccn12 [I-63, 4-Phenylimidazo[1,2-a]quinoxaline-7-carboxylic acid] | > 10 |
| FC(F)(F)c1ccc(-c2nc3cc(-c4nnn[nH]4)ccc3n3cccc23)cc1 [I-184, 7-(1H-tetrazol-5-yl)-4-(4-(trifluoromethyl)phenyl)pyrrolo[1,2-a]quinoxaline] | 5 to 10 |
| O=C(O)c1ccc2c(c1)nc(N1CCC3(CCCOC3)CC1)c1cccn12 [I-26, 4-(2-Oxa-9-azaspiro[5.5]undecan-9-yl)pyrrolo[1,2-a]quinoxaline-7-carboxylic acid] | 5 to 10 |
| O=C(O)c1ccc2c(c1)nc(N1CCC3(CC1)CC3)c1ccnn12 [I-277, 4-(6-azaspiro[2.5]octan-6-yl)pyrazolo[1,5-a]quinoxaline-7-carboxylic acid] | 1 to 5 |
| N#Cc1cc(-c2ccc(C(F)(F)F)cc2)nc2cc(C(=O)O)ccc12 [I-401, 4-cyano-2-(4-(trifluoromethyl)phenyl)quinoline-7-carboxylic acid] | 5 to 10 |
| O=C(O)c1ccc2c(c1)nc(N1CCC3(CCCCC3)CC1)c1cccn12 [I-30, 4-(3-Azaspiro[5.5]undecan-3-yl)pyrrolo[1,2-a]quinoxaline-7-carboxylic acid] | 1 to 5 |
| O=C(O)c1ccc2c(c1)nc(N1CCC3(CC1)COC3)c1cccn12 [I-29, 4-(2-Oxa-7-azaspiro[3.5]nonan-7-yl)pyrrolo[1,2-a]quinoxaline-7-carboxylic acid] | > 10 |
| CC(C)(C)c1ccc(-c2nc(C(=O)O)cn3ccnc23)cc1 [I-147, 8-(4-(tert-Butyl)phenyl)imidazo[1,2-a]pyrazine-6-carboxylic acid] | > 10 |
| O=C(O)c1ccc2c(c1)nc(C1CCC1)c1nccn12 [I-71, 4-Cyclobutylimidazo[1,2-a]quinoxaline-7-carboxylic acid] | > 10 |
| C=CC(=O)Nc1ccc2c(C)cc(-c3ccc(C(F)(F)F)cc3F)nc2c1 [I-90, N-(2-(2-fluoro-4-(trifluoromethyl)phenyl)-4-methylquinolin-7-yl)acrylamide] | ≤ 1 |
| C=CC(=O)NCc1cn2ncnc2c(-c2ccc(C(F)(F)F)cc2)n1 [I-236, N-((8-(4-(Trifluoromethyl)phenyl)-[1,2,4]triazolo[1,5-a]pyrazin-6-yl)methyl)acrylamide] | ≤ 1 |
| C=CC(=O)Nc1ccc2cnc(-c3ccc(C)cc3)nc2c1 [I-81, N-(2-(p-Tolyl)quinazolin-7-yl)acrylamide] | 1 to 5 |
| O=C(O)c1ccc2c(c1)nc(N1CCc3ccccc3C1)c1cccn12 [I-21, 4-(3,4-Dihydroisoquinolin-2(1H)-yl)pyrrolo[1,2-a]quinoxaline-7-carboxylic acid] | > 10 |
| O=C(O)c1ccc2c(c1)nc(N1CCC(C(F)(F)F)CC1)c1cccn12 [I-38, 4-(4-(Trifluoromethyl)piperidin-1-yl)pyrrolo[1,2-a]quinoxaline-7-carboxylic acid] | > 10 |

Now from value to compound:

| GI50 [µM] | SMILES |
| --- | --- |
| ≤ 1 | O=C(O)c1ccc2c(c1)nc(N1CCC3(CC1)CC3(F)F)c1cccn12 [I-36, 4-(1,1-Difluoro-6-azaspiro[2.5]octan-6-yl)pyrrolo[1,2-a]quinoxaline-7-carboxylic acid] |
| ≤ 1 | COc1nc(-c2ccc(C(F)(F)F)cc2)nc2cc(C(=O)O)ccc12 [I-433, 4-methoxy-2-(4-(trifluoromethyl)phenyl)quinazoline-7-carboxylic acid] |
| ≤ 1 | C=CC(=O)NCc1nc(-c2ccc(C(F)(F)F)cc2)c2ncccc2n1 [I-305, N-((4-(4-(trifluoromethyl)phenyl)pyrido[3,2-d]pyrimidin-2-yl)methyl)acrylamide] |
| ≤ 1 | C=CC(=O)NCc1nc(-c2ccc(C(F)(F)F)cc2F)c2ccccc2n1 [I-303, N-((4-(2-fluoro-4-(trifluoromethyl)phenyl)quinazolin-2-yl)methyl)acrylamide] |
| ≤ 1 | COc1cc(-c2ccc(C(F)(F)F)cc2)nc2cc(C(=O)O)ccc12 [I-181, 4-methoxy-2-(4-(trifluoromethyl)phenyl)quinoline-7-carboxylic acid] |
| ≤ 1 | CC(C)(C)c1ccc(-c2nc3cc(C(=O)O)ccc3n3ccc(F)c23)cc1 [I-115, 4-(4-(tert-Butyl)phenyl)-3-fluoropyrrolo[1,2-a]quinoxaline-7-carboxylic acid] |
| ≤ 1 | C=CC(=O)NCc1cc2nccn2c(-c2ccc(C(F)(F)F)cc2)n1 [I-315, N-((5-(4-(trifluoromethyl)phenyl)imidazo[1,2-c]pyrimidin-7-yl)methyl)acrylamide] |
| ≤ 1 | C=CC(=O)NCc1nc(-c2ccc(C(F)(F)F)cc2)c2ccc(F)cc2n1 [I-445, N-((7-fluoro-4-(4-(trifluoromethyl)phenyl)quinazolin-2-yl)methyl)acrylamide] |
| ≤ 1 | Cc1cc2c(-c3ccc(C(F)(F)F)cc3)nc3cc(C(=O)O)ccc3n2c1 [I-404, 2-Methyl-4-(4-(trifluoromethyl)phenyl)pyrrolo[1,2-a]quinoxaline-7-carboxylic acid] |
| ≤ 1 | C=CC(=O)NCc1cn2ccnc2c(N(C)Cc2ccc(C(F)(F)F)cc2)n1 [I-300, N-((8-(methyl(4-(trifluoromethyl)benzyl)amino)imidazo[1,2-a]pyrazin-6-yl)methyl)acrylamide] |
| ≤ 1 | COc1cc(-c2ccc(C(F)(F)F)cc2)nc2cc(C(=O)N[C@@H](C)CO)ccc12 [I-325, (S)—N-(1-hydroxypropan-2-yl)-4-methoxy-2-(4-(trifluoromethyl)phenyl)quinoline-7-carboxamide] |
